Patent US20250277187A1, “A METHOD FOR PRODUCING INDUCED STEROIDOGENIC CELLS AND USE THEREOF IN CELL THERAPY” (TECHNISCHE UNIVERSITAET DRESDEN, priority 2021, published 2025)

Tested on: cells infected with the SF1 gene or the SF1+MC2R+MRAP genes
Test: ACTH stimulation of hiSCs: cortisol and aldosterone secretion
Assay type: cell-based, human
Conditions: ACTH 0 nM, 10 nM

adrenocorticotropic hormone (SYSMEHFRWGKPVGKKRRPVKVYPNGAEDESAEAFPLEF; Corticotropin; UniProt P01189 138-176, looked up) [ACTH, hormone secreted by the anterior pituitary gland, used to stimulate the cells]
production/secretion of cortisol (1 uM (FIG. 15B)): increasing with administration of increasing ACTH dosage | production/secretion of aldosterone (1 uM (FIG. 15C)): increasing with administration of increasing ACTH dosage
